Experimental findings from patent US6562833B1 (priority 1998, dated 2003) are described below.

Type in all cases: in vivo
One experiment deals with Puccinia recondita. Put plainly: Comparative Experiment 2 - curative activity against Puccinia recondita on wheat (wheat leaf rust). The following applies: potted wheat seedlings c.v. Kanzler, aqueous 250 ppm preparation sprayed the day after inoculation, assessed after 7 days, untreated plants 100% infected. The source says: (§1) The active ingredients were formulated separately or jointly as a 10% emulsion in a mixture of 70% by weight of cyclohexanone, 20% by weight of Nekanil® LN (Lutensol® AP6, wetting agent having emulsifying and dispersant action based on ethoxylated alkylphenols) and 10% by weight of Wettol® EM (nonionic emulsifier based on ethoxylated castor oil) and diluted with water to give the desired concentration.
Leaves of potted wheat seedlings c.v. “Kanzler” were dusted with spores of wheat leaf rust (Puccinia recondita). Thereafter, the pots were kept in a chamber of high atmospheric humidity (90 to 95%), at 20 to 22° C. for 24 hours. During this time, the spores germinated and the germ tubes penetrated into the leaf tissue. The next day, the infected plants were sprayed to runoff point with an aqueous 250 ppm preparation of active compound which had been made up from a stock solution consisting of 10% of active compound, 63% of cyclohexanone and 27% of emulsifier. After the spraycoating had dried on, the test plants were cultivated in a greenhouse at 20-22° C. and 65-70% relative atmospheric humidity for 7 days. The extent of the rust fungus development on the leaves was then determined.

In experiment [1] the test system is Plasmopara viticola. Put plainly: Comparative Experiment 1 - activity against Plasmopara viticola on grapevine leaves (persistency, 500 ppm). The conditions noted are these: potted grapevines c.v. Müller-Thurgau; aqueous 500 ppm preparation sprayed to runoff; inoculated 7 days after treatment; untreated plants 85% infected.
Description: as §1
Leaves of potted grapevines c.v. “Müller-Thurgau” were sprayed to runoff point with an aqueous 500 ppm preparation of active compound which had been made up from a stock solution comprising 10% of active compound, 63% of cyclohexanone and 27% of emulsifier. To assess the persistency of the substances, the plants were kept for 7 days in a greenhouse after the spray-coating had dried off. Only then were the leaves inoculated with an aqueous zoospore suspension of Plasmopara viticola. The grapevines were then initially kept in a water vapor-saturated chamber at 24° C. for 48 hours and then in a greenhouse at 20-30° C. for 5 days. After this period of time, the plants were once more kept in a humid chamber for 16 hours to promote sporangiophore eruption. The extent of the infection on the undersides of the leaves was then determined visually.

In experiment [2] the test system is Plasmopara viticola. Briefly: Comparative Experiment 4 - activity against Plasmopara viticola on grapevine leaves (persistency, 250 ppm). The following applies: potted grapevines c.v. Müller-Thurgau; aqueous 250 ppm preparation sprayed to runoff; inoculated 7 days after treatment; untreated plants 85% infected.
Description: as §1
Leaves of potted grapevines c.v. “Müller-Thurgau” were sprayed to runoff point with an aqueous 250 ppm preparation of active compound which had been made up from a stock solution comprising 10% of active compound, 63% of cyclohexanone and 27% of emulsifier. To assess the persistency of the substances, the plants were kept for 7 days in a greenhouse after the spray-coating had dried off. Only then were the leaves inoculated with an aqueous zoospore suspension of Plasmopara viticola. The grapevines were then initially kept in a water vapor-saturated chamber at 24° C. for 48 hours and then in a greenhouse at 20-30° C. for 5 days. After this period of time, the plants were once more kept in a humid chamber for 16 hours to promote sporangiophore eruption. The extent of the infection on the undersides of the leaves was then determined visually.

In a further experiment the test system is Pyricularia oryzae. The conditions noted are these: potted rice seedlings c.v. TaiNong 67; protective, aqueous 250 ppm preparation; inoculated the next day; assessed after 6 days; untreated plants 90% infected.

In the case of `Cc1nc(Nc2ccccc2)nc(C#N)c1C` [I.9, 4-Cyano-5,6-dimethyl-2-(phenylamino)pyrimidine], the “infection (extent of the rust fungus development on the leaves)” value in the experiment with Puccinia recondita came to 30%. The “infection (extent of the infection on the undersides of the leaves, determined visually)” value in the experiment on Plasmopara viticola [1] came to 5%. Turning to `CON=Cc1cc(C)nc(Nc2ccccc2)n1` [active compound C], the “infection (extent of the infection on the undersides of the leaves, determined visually)” value in the experiment on Plasmopara viticola [2] was 60%. Turning to `Cc1cc(C#N)nc(Nc2ccccc2)n1` [active compound A], the “infection (extent of the rust fungus development on the leaves)” value in the experiment with Puccinia recondita was 100%. Also, the “infection (extent of the infection on the undersides of the leaves, determined visually)” value in the experiment with Plasmopara viticola [1] was 50%.

With `Cc1nc(Nc2ccccc2)nc(C(F)(F)F)c1C` [I.18], the “infection (extent of the development of the disease on the leaves, determined visually)” value in the experiment with Pyricularia oryzae stood at 15%. With `CON=Cc1nc(Nc2ccccc2)nc(C)c1C` [I.62, 5,6-Dimethyl-4-(N-methoxyimino)methyl-2-(N-phenylamino)pyrimidine], the “infection (extent of the infection on the undersides of the leaves, determined visually)” value with Plasmopara viticola [2] amounted to 10%. Regarding `Cc1cc(C(F)(F)F)nc(Nc2ccccc2)n1` [active compound B], in the experiment with Pyricularia oryzae, the “infection (extent of the development of the disease on the leaves, determined visually)” value is 80%.
